Our source for the GI50 and TGI values is PubChem BioAssay (NCI).

Molecules are shown by their SMILES. In brackets after ≈: the same amount, converted by molar mass.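 All cell lines were grown in 96-well plates and treated with compound for 48 hours. GI50 is the concentration that inhibits growth by half. Definition used: TGI = concentration required for complete inhibition of growth.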

Holding throughout (experiment): DTP human tumour cell line panel, 48 h
For test [1], the system named is KM12 colon.
Test [2] concerns A549 NSCLC.
Test [3] relates to HCT-116 colon.
The test system of test [4] is HCT-15 colon.
The subject of test [5] is UO-31 renal.
Test [6] has as its system MDA-MB-231 breast.
Test [7] deals with CCRF-CEM leukemia.
In test [8] the test system is NCI-H226 lung.
Test [9] has as its system SF-295 CNS.
The subject of test [10] is MOLT-4 leukemia.
In test [11] the test system is SNB-19 CNS.
The test system of test [12] is NCI/ADR-RES ovarian.
Test [13] deals with K-562 leukemia.
Test [14] deals with SR leukemia.
Test [15] concerns MALME-3M melanoma.
For test [16], the system named is RPMI-8226 leukemia.
Test [17] deals with OVCAR-4 ovarian.
Test [18] has as its system HS 578T breast.
For test [19], the system named is HOP-62 NSCLC.
The test system of test [20] is UACC-257 melanoma.
Test [21] has as its system MCF7 breast.

For orientation: GI50 means the concentration that inhibits growth by half. What is called TGI is the concentration giving total growth inhibition. Low readings indicate greater sensitivity of the cells, high ones lower sensitivity of the cells. With `COC(=O)C(Cc1ccccc1)C(=O)C(CC(=O)OC(C)(C)C)NC(=O)OC(C)(C)C` (stereo not given), the GI50 was 59.7 µg/mL (≈ 137 µM) in test [1]; 26.2 µg/mL (≈ 60.1 µM) in test [2]; 26.5 µg/mL (≈ 60.8 µM) in test [3]; 28.2 µg/mL (≈ 64.9 µM) in test [4]; 24.7 µg/mL (≈ 56.7 µM) in [5]. Also, the TGI stood at 87.9 µg/mL (≈ 202 µM) in test [3] and 66.8 µg/mL (≈ 153 µM) in test [5].
`CC1=C(C)C(=O)OC([C@](C)(O)[C@]2(O)CC[C@@]3(O)[C@@H]4C[C@H]5O[C@]56CC=CC(=O)[C@]6(C)[C@H]4CC[C@]23COC(=O)c2ccc(C)o2)C1` (stereo not given in full): the total growth inhibition concentration (TGI) in [6] was above 24.4 µM; in [7], above 35.4 µM; in [8], above 33 µM; in test [9], above 32.6 µM; in test [10], above 22.4 µM; in test [11], above 24.7 µM. Moreover, the TGI in [12] was above 79.7 µM; in test [2] it was above 32.4 µM; in test [13], above 43.5 µM; in test [14], above 100 µM; in test [15], above 31.8 µM; in test [16] it was above 33.2 µM. Moreover, the TGI is above 34.1 µM in [17]; above 51.6 µM in test [18]; above 21 µM in [19]; above 20.9 µM in [20]; above 100 µM in [21]. Also, in test [21], the GI50 was above 100 µM.
